Key:
[1] = tested on: peripheral blood mononuclear cells (PBMC); test: Marker expression on stimulated PBMC by flow cytometry; assay type: cell-based, human; conditions: 24 h
Description: Human peripheral blood mononuclear cells (PBMCs) were purified from healthy donors with Ficoll-Paque density centrifugation. Cells were cultured in complete RPMI-1640 media (Invitrogen) supplemented with 25 mM HEPES, L-glutamine, Sodium pyruvate (Sigma), 10% fetal bovine serum, 100 μg/mL penicillin and 100 μg/mL streptomycin (Hyclone) for 24-72 hours in 37° C., 5% CO2 and stimulated with and increasing concentrations of compound 1 and 2. Cells were then washed in PBS and stained with monoclonal antibodies specific for cell surface markers (BD Pharmingen) and analysed with flow cytomtetry using a BD FACS Canto II flow cytometer. All samples were tested in duplicates.
Human peripheral blood mononuclear cells (PBMCs) were purified from healthy donors with Ficoll-Paque density centrifugation. Cells were cultured in complete RPMI-1640 medium (Invitrogen) supplemented with 25 mM HEPES, L-glutamine, Sodium pyruvate (Sigma), 10% fetal bovine serum, 100 μg/mL penicillin and 100 μg/mL streptomycin (Hyclone). […] The cells were removed from the plate, washed in PBS and analysed for expression of cell specific surface markers and MHC class I with flow cytomtery using monoclonal antibodies from BD Pharmingen and a FACS Canto II flow cytometer.

[2] = tested on: macrophages; test: Cytokine secretion from macrophages (cytometric bead assay); assay type: cell-based, human
Description: FIG. 10: Interferon-gamma secretion (as measured by cytometric bead assay) from macrophages stimulated with indicated compound for 48 h.
FIG. 11: Chemokine RANTES secretion (as measured by cytometric bead assay) from PBMC or macrophages stimulated with indicated compound for 48 h.
FIG. 12: IL12p70 secretion (as measured by cytometric bead assay) from PBMC or macrophages stimulated with indicated compound for 48 h.
FIG. 13: IL1 b secretion (as measured by cytometric bead assay) from PBMC, macrophages or CD4 T cells stimulated with indicated compound for 48 h.
Study 9: Macrophages from healthy donors where exposed to compounds 1 or 2 for 48 hours. […] Compound 1 is therefore able to induce IFN-gamma secretion in macrophages from healthy donors.
Study 10: PBMCs and macrophages where exposed to compounds 1 or 2 for 2 days (FIG. 11).
Study 11: PBMCs and macrophages where exposed to compounds 1 and 2 for 2 days.
Study 12: PBMCs, macrophages and CD4+ T cells where exposed to compounds 1 and 2 for 2 days.

What does the source list for CC[C@H]1OC(=O)[C@H](C)[C@@H](O[C@H]2C[C@@H](N(C)C)[C@H](O)[C@@H](C)O2)[C@H](C)[C@@H](O)[C@](C)(O)C[C@@H](C)CN(C)[C@H](C)[C@@H](O)[C@]1(C)O [Compound 1]?
activation marker CD69 on CD4+ T cells and B cells ([1]; 1 μM): upregulated; MHC class I molecule (HLA-ABC) on T- and B-cells [1]: upregulation; IL-1 beta secretion in macrophages ([2]; 2 days): increased; IL-12p70 secretion from macrophages ([2]; 2 days): secreted IL-12p70; IFN-gamma secretion from macrophages ([2]; 48 hours): secreted IFN-gamma

From US20210040134A1, “COMBINATIONS OF MACROLIDE COMPOUNDS AND IMMUNE CHECKPOINT INHIBITORS” (ISR IMMUNE SYSTEM REGULATION HOLDING AB (PUBL), priority 2018, published 2021)
